pIC50: −log10 of the molar value.
Tests used:
5-Lipoxygenase = target: T1, 5-Lipoxygenase (Homo sapiens, UniProt P09917); experiment: Inhibition of 5-Lipoxygenase in Human Whole Blood (LTB4, calcium ionophore A23187); format: cell-based
T1 construct: from tissue; host or cells: whole blood of male human donors (endogenous enzyme of the leukocytes)
T1 sequence (P09917 1-674): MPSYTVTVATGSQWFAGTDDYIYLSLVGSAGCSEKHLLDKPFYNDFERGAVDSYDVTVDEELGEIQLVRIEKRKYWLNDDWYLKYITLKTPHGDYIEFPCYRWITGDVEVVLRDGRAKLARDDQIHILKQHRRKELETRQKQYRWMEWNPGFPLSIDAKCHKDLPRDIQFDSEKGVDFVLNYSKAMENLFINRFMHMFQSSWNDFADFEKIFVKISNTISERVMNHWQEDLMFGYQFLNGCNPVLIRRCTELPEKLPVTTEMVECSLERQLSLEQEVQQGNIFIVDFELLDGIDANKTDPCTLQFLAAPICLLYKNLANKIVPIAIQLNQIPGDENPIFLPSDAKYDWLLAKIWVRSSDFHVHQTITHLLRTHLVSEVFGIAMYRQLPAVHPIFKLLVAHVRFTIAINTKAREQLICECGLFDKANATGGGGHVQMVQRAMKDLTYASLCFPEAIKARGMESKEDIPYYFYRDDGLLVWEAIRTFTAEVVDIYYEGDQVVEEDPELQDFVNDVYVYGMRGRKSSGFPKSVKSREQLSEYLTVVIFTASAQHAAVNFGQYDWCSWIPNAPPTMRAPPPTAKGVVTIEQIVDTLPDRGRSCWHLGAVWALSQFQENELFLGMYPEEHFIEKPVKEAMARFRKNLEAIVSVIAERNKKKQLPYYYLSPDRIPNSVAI
Description: 1. Inhibition of 5-Lipoxygenase in Human Whole Blood
Blood is obtained in 50-100 ml quantities from male donors. White blood cell counts and differentials are made. Two ml of blood are placed in a 15 ml polypropylene test tube. Test compounds are solubilized in dimethylsulfoxide and diluted in 1:10 in 10% bovine serum albumin in phosphate buffered saline, pH 7.4 resulting in a final dimethylsulfoxide concentration of 0.1% in the blood. Then, solutions of test compounds are added to the blood in a shaking water bath at 37° C. for 10 minutes prior to the addition of 30 μM calcium ionophore (A23187, Sigma). After ionophore administration, whole blood samples are mixed and incubated for 20 minutes at 37° C. in a shaking water bath. Incubation is terminated by placing samples in an ice bath and immediately adding ethylene glycol-bis-(β-aminoethyl ether)-N, N,N',N'-tetraacetic acid (10 mM). Samples are mixed and centrifuged at 1200× g for 15 minutes at 4° C. Preparation of samples for evaluation by RIA or ELISA is carried out by the following protocol. Plasma is removed from sample tubes, placed in 15 ml polypropylene test tubes containing 8 ml methanol, and then vortexed to precipitate protein. Samples are stored at -70° C. overnight. The next day, samples are centrifuged at 200× g for 15 minutes at 4° C. to pellet the precipitate. Samples are dried in a Savant SpeedVac Concentrator, Model SVC 200H, reconstituted to original volume with ice cold RIA or ELISA buffer, and stored at -70° C. until assayed. The assay for eicosanoids (LTB4, T×B2, and PGE2) is performed as described by the manufacturer of the ^3 H!-RIA kit or ELISA kit (LTB4 -Amersham, T×B2 and PGE2 -Caymen Chemical).
The total eicosanoid level in 2 ml of blood is calculated and reported as ng/10^6 neutrophils. Significance is determined by a one-way analysis of variance with least significant difference (LSD) comparisons to control (p≤0.05) and IC50 's (μM) are determined by regression analysis (Finney, 1978). Drug effects are expressed as percent change from control values.

Lipoxygenase = experiment: Ex-Vivo Measurement of Lipoxygenase Inhibition in Orally Dosed Rats (LTB4 in A23187-stimulated blood); design: species or system Male Sprague Dawley rats; settings: 10 mg/kg, p.o.
Description: 2. Ex-Vivo Measurement of Lipoxygenase Inhibition in Orally Dosed Rats
After an interval of 3 or 6 hours, the rats were anesthetized with metofane (n=4/group) and blood collected in heparinized tubes. White blood cell counts and differentials were made. One ml of blood from each animal was placed in a 5 ml plastic tube in a shaker bath at 37° C. A23187 at a final concentration of 10 μM was added to the blood and the blood vortexed and incubated for 15 min at 37° C. with gentle shaking. Incubation was terminated by vortexing sample and centrifuging immediately at 1200× G for 15 min at 4° C. The plasma was transferred to 15 ml plastic tubes each containing 8 ml of methanol to precipitate protein followed by vortexing. The samples were stored at -70° C. overnight and the next day the samples were centrifuged at 800× G for 15 min to pellet the precipitate. The samples were dried in a Savant SpeedVac Concentrator Model SVC 200H and reconstituted to the original volume with cold RIA or ELISA buffer. The reconstituted samples were stored at -70° C. until assayed. The assay for LTB4 was performed according to the directions of the ^3 H!RIA kit or ELISA kit (Seragen). The total metabolite level in 1 ml of blood is calculated and reported as ng/10^6 neutrophils. Significance is determined by a one-way analysis of variance with LSD comparisons to control (p≤0.05).

Low Density Lipoprotein = experiment: Inhibition of Copper Ion Mediated Oxidation of Low Density Lipoprotein; format: biochemical; settings: Cu^+2 mediated oxidation of rabbit or monkey LDL
Description: 5. Inhibition of Copper Ion Mediated Oxidation of Low Density Lipoprotein
In this in vitro assay, the inhibition of Cu^+2 mediated oxidation of rabbit or monkey LDL by an invention compound is determined spectrophotometricallly. Oxidation of LDL results in the formation of LDL-diene which absorbs light at 532 nm. Inhibition of oxidation of LDL leads to a decrease in absorbance at 532 nm.
Rabbit or monkey LDL is prepared according to the procedures of Havel, Eder and Gragdon, "The Distribution and Chemical Composition of Ultracentrifugally Separated Lipoproteins in Human Serum,: J, Clin. Invest. 34, 1345-1353 (1955) and Parhtasarathy, Wieland and Steriberg, "A Role for Endothelial Cell Lipoxygenase in the Oxidative Modification of Low Density Lipoprotein," Proc, Natl. Acad. Sci. USA 86, 1046-1050 (1989). Test compound solutions are prepared by dissolving the invention compounds in ethanol at concentrations up to 248 μM. The medium used is Dulbecco's phosphate buffered saline containing 0.5 mg/ml bovine serum albumin. For standards, 0 to 10 μl of an aqueous solution of 1,1,3,3-tetraethoxypropane (1 μmol/ml H2 O) in 4.1 ml of medium is used.
Test compound solution (100 μl) is added to 4 ml of medium in incubation tubes. To each tube is added 10 μl of LDL solution and 25 μl of aqueous copper sulfate solution (1.32 mg/ml H2 O ). The tubes are incubated at 37° C. for 90 minutes and the oxidation reaction quenched by addition of 1 ml of thiobarbituric acid solution (0.67% in 50% acetic acid). The tubes are heated at 90° C. for 1 hour, then chilled in an ice bath and the chromophore extracted into 2 ml of n-butanol. Absorbence is read at 532 nm and the results are reported as nmols of malondialdehyde equivalents.
Significant differences (p<0.05) are determined by the Dunnett T-test or by the Student-Newman-Keuls Test for significant differences between means. The assay is conducted using several concentrations I! of the inhibitor test compounds. The LDL solution concentrations at different experiments were either 1.5 mg/ml, 2.5 mg/ml or 10.3 mg/ml. The IC50 is determined by non-linear regression, plotting log I! vs. % inhibition. (Reference: K. Yagi, Biochemical Medicine 15, 212-216 (1976)).

LTB4 = experiment: Reverse Passive Arthus Reaction (pleurisy), LTB4 in pleural exudate; format: in vivo, male Lewis rats; settings: 25 mg/kg, p.o.
Description: 3. Reverse Passive Arthus Reaction
A reverse passive Arthus reaction is induced in the pleural cavity of male Lewis rats (150-200 g; fasted overnight prior to use) by the intravenous administration of bovine serum albumin (BSA; 4 mg/0.2 ml) followed 30 minutes later by the injection of rabbit anti-BSA (1 mg/2.0 ml; lyophilized IgG fraction; Organon Teknika, West Chester, Pa.) into the right pleural space under halothane anesthesia. Drugs or vehicle (0.5% Tween-80) control are administered orally in a volume of 1 ml/100 g body weight at 1 hour prior to the anti-BSA. Animals are sacrificed at either the time of peak eicosanoid production (i.e. 5 minutes after anti-BSA for immunoreactive T×B2, 10 minutes for immunoreactive LTB4, 20 minutes for immunoreactive LTC4) or at the time of peak neutrophil infiltration (4 hours after anti-BSA) by CO2 inhalation. The pleural cavity is then exposed, the fluid exudate removed by gentle vacuum aspiration and the volume of exudate is recorded. For the determination of cellular infiltration, the pleural cavity is rinsed with 3 ml of 0.1% EDTA in sterile saline, and the recovered wash is pooled with the exudate. Cell number is determined on a model ZBI Coulter counter. For determination of eicosanoid production, undiluted pleural exudate is microfuged and the supernatant is extracted with ethanol (8-10 times volume). Extracts are either stored at -20° C., or are evaporated to dryness under a stream of N2 and reconstituted in radioimmunoassay (RIA) buffer.
Eicosanoids are quantitated by RIA according to the procedure specified by the RIA kit manufacturer (Advanced Magnetics, Cambridge, MA). Briefly, 100 μl of ^3 H-labeled eicosanoid and 100 μl of specific antibody are sequentially added to 100 μl of extracted pleural exudate in BGG-phosphate buffer which contains 0.01M phosphate, 0.1% bovine gamma globulin and 0.1% sodium azide at pH 7.0. Antibody-bound eicosanoid is separated from unbound eicosanoid by the addition of 750 μl of dextran (0.4%)-coated charcoal (Norit A) containing 0.1% sodium azide. The mixture is centrifuged at 2000 RPM at 5° C. for 15 minutes to pellet the charcoal and adsorbed unbound eicosanoid. Antibody-bound labeled eicosanoid is quantitated by counting in a liquid scintillation counter, and is correlated to concentration by a standard curve.

LDL [1] = settings: in words; cited from earlier work
LDL [2] = settings: in words; cited from earlier work; remark: listed apart in the source
atherosclerotic lesions = settings: WHHL rabbits, in words; cited from earlier work

| Structure (SMILES) | inhibition at 1 µM (5-Lipoxygenase) [%] | % Inhibition of LTB4 (Lipoxygenase; pretreatment period 3 hr) [%] | % Inhibition of LTB4 (Lipoxygenase; pretreatment period 6 hr) [%] | pIC50 (Low Density Lipoprotein) | inhibition at 10 µM (5-Lipoxygenase) [%] | % Inhibition of LTB4 Synthesis (LTB4) [%] | also measured |
| --- | --- | --- | --- | --- | --- | --- | --- |
| Cc1oc(-c2ccccc2)nc1COc1ccc(CN(O)C(N)=O)cc1Cl [Example 2, 1-3-Chloro-4-(5-methyl-2-phenyl-oxazol-4-ylmethoxy)-benzyl!-1-hydroxy-urea] | 31 | 68 | 72 | 6.25 | – | – | – |
| Cc1oc(-c2ccccc2)nc1COc1ccc(CN(O)C(N)=O)c(Cl)c1 [Example 3, 1-2-Chloro-4-(5-methyl-2-phenyl-oxazol-4-ylmethoxy)-benzyl!-1-hydroxy-urea] | – | 40 | – | – | 80 | 26 | – |
| COc1cc(CN(O)C(N)=O)ccc1OCc1nc(-c2ccccc2)oc1C [Example 4, 1-Hydroxy-1-3-methoxy-4-(5-methyl-2-phenyl-oxazol-4-ylmethoxy)-benzyl!-urea] | – | – | – | 6.09 | 81 | – | – |
| Cc1oc(-c2ccccc2)nc1COc1ccc(CN(O)C(N)=O)cc1F [Example 5, 1-3-Fluoro-4-(5-methyl-2-phenyl-oxazol-4-ylmethoxy)-benzyl!-1-hydroxy-urea] | 47 | 66 | 68 | – | – | 28 | – |
| NC(=O)N(O)Cc1ccc(OCc2csc(-c3ccc(Cl)cc3)n2)cc1 [Example 14, 1-4-2-(4-chloro-phenyl)-thiazol-4-ylmethoxy!-benzyl!-1-hydroxy-urea] | 71 | – | – | 5.96 | – | – | – |
| CC(C)(Sc1cc(C(C)(C)C)c(O)c(C(C)(C)C)c1)Sc1cc(C(C)(C)C)c(O)c(C(C)(C)C)c1 [Probucol] | – | – | – | – | – | – | inhibition of cell mediated oxidative modification of LDL (LDL [1]): inhibits; inhibition of Cu^+2 mediated oxidative modification of LDL (LDL [2]): inhibits; inhibition of formation of atherosclerotic lesions (atherosclerotic lesions): inhibit the formation of atherosclerotic lesions |

Source: US5504097A, “N-hydroxyureas as 5-lipoxygenase inhibitors and inhibitors of oxidative modification of low density lipoprotein” (American Home Products Corporation, priority 1995, dated 1996)
